Test results taken from patent US20050202559A1, “Cancer treatment by metabolic modulations” (priority 2002, published 2005).
pIC50: −log10 of the molar value.

Tests used:
HeLa cells [1] = assay: Adenovirus infection, Trypan Blue viability cell counts and morphology; assay type: cell-based, human; conditions: roscovitine-treated versus untreated
Procedure: (§1) Cultured cells lines were seeded on six or twelve well tissue culture plates. When they reached 70-85% confluence, cells were infected with various amounts of recombinant GL adenovirus or control adenovirus. Adenovirus was added to each well in 300 μl medium and incubated for 2 hours at 37° C., 5% CO2. After incubation, 1.5 ml of medium was added and incubated at 37° C., 5% CO2. The medium was changed every day. At various time points post-infection, viable cells were counted using Trypan Blue and the remaining cells were collected and frozen for subsequent glycogen measurements.
Trypan Blue Viability Cell Counts: Trypan Blue (0.4%, Gibco) was used to stain dead and dying cells. Cells were removed from the tissue culture plates with 0.25% Trypsin-EDTA (Gibco #25200-056) and resuspended in 1 ml phosphate buffered saline (PBS). Manual cell counts were performed with a Neubauer hemocytometer.
Roscovitine Studies: Roscovitine (Calbiochem #557362), [2-(R)-(1-ethyl-2-hydroxyethylamino)-6-benzyl amino-9-isopropylpurine], is a potent and selective inhibitor of the cyclin-dependent kinases Cdk2 and Cdc2. Roscovitine stock solution was prepared in dimethylsulfoxide (DMSO) and stored at −20° C. until use. […]
Cell viability after viral infection was assessed using the Trypan Blue exclusion assay. Cells stained with Trypan Blue and viable cells are counted using a Neubauer hemocytometer. […]

HeLa cells [2] = assay: Glycogen assay (glucoamylase hydrolysis, glucose Trinder reagent); assay type: cell-based, human; conditions: uninfected control HeLa cells, 35 μM roscovitine
Procedure: as §1
Glycogen Assay: Enzymatic glycogen hydrolysis to glucose was performed according to Keppler and Decker with some modifications (Keppler and Decker, 1984 in: Methods of Enzymatic Analysis, 3rd ed. (Bergmeyer, H. U. Bergmeyer, J., and Grab, M. Eds.), Vol. 6, pp. 11-18, VCH, New York.). In brief, frozen cell pellets were subjected to three rounds of freezing and thawing to disrupt cell membranes. Cell pellets were resuspended in 200 μl 250 mU glucoamylase in 0.2 M sodium acetate buffer, pH 4.8. Lysates were incubated for two hours at 45° C. with shaking. Lysates were cleared by centrifugation at 2500 rpm for 10 min. […] Glucose was then determined with the glucose Trinder colorometric reagent (Sigma, 315-500). The intensity of the color reaction was measured at 505nm using a Molecular Devices VERSAmax microplate reader. […]

GSK-3 [3] = conditions: read-out: concentration that inhibits GSK-3 to half maximal activity; cited from earlier work
GSK-3 [4] = conditions: cited from earlier work

## CC[C@H](CO)Nc1nc(NCc2ccccc2)c2ncn(C(C)C)c2n1 [roscovitine, 2-(R)-(1-ethyl-2-hydroxyethylamino)-6-benzyl amino-9-isopropylpurine]
HeLa cells [1]
  cell viability of AdGL-infected cells: significantly decreased
HeLa cells [2]
  glycogen accumulation: no significant increases

## [Be+2] [beryllium]
GSK-3 [3]
  pIC50: 2.22

## [Zn+2] [zinc]
GSK-3 [4]
  concentration at which GSK-3 is inhibited in cell culture: 15 mM
